Laboratory results: patent US9453062B2, “Glucose dependent insulinotropic polypeptide analogs, pharmaceutical compositions and use thereof” (Beijing Hanmi Pharmaceutical Co., Ltd., priority 2011, dated 2016)
pEC50: −log10 of the molar value. Where a SMILES comes first, the peptide text is derived from it. Bridges are numbered along the chain shown (N, C = ends). Where no end group is shown, it is not given here. [ ]: non-standard residue; d: D form. The star is where a group is joined. Biotin = O=C1N[C@H]2[C@H](CS[C@H]2CCCCC(=O)*)N1; Palmitoyl = CCCCCCCCCCCCCCCC(=O)*; Nle = CCCC[C@H](N)C(=O)O; Aib = CC(C)(N)C(=O)O

How the values were obtained:
hGIPR = target: T1, hGIPR (Homo sapiens, UniProt P48546); experiment: hGIPR-mediated cAMP induction assay in CHO cell line; format: cell-based; conditions: for pEC50 / GIP Receptor Relative Potency: Table 3; for pEC50: CHO hGIPR cells; for GIP Receptor Relative Potency: against native GIP
T1 construct: expressed in transfected cells; host or cells: CHO
T1 sequence (P48546 22-466): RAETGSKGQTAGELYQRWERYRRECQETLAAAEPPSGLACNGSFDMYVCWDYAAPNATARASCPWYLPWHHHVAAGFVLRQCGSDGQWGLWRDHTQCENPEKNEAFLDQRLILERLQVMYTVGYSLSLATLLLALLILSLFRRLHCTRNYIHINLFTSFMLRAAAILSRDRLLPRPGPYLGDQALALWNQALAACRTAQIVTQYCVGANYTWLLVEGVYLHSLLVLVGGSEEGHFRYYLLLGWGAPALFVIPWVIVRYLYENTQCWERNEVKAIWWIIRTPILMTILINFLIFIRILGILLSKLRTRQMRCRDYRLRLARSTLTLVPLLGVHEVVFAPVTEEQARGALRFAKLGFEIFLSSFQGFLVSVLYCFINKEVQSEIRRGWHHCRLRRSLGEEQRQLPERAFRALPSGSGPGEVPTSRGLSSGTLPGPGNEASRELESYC
From the text: The cAMP in the sample or standard competes with horseradish peroxidase (HRP)-labeled cAMP conjugate for binding sites on the anti-cAMP antibodies. In the absence of cAMP, most of the HRP-cAMP conjugate is bound to the antibody. Increasing concentrations of cAMP competitively decrease the amount of bound conjugate, thus decreasing measured HRP activity.
Assay kit: CatchPoint™ Cyclic-AMP Fluorescent Assay Kit (Molecular Devices, Product # R8088)
Cell lines: CHO hGLP1R, CHO hGIPR
Cell seeding: CHO hGLP1R or CHO hGIPR cells: 10,000 cells/well/100 uL at 37° C. 5% CO2 overnight.
Gently aspirate off media and wash the cells with KRBG Buffer, 100 uL/well.
Incubate the plate for 10 min at room temperature. Then add the KRBG buffer with 3× final concentration of the tested samples (5-foled series diluted from 5,000 nM), 50 uL/well. Incubate the plate at 37° C. 5% CO2 for 30 min.
Add 50 uL of Lysis buffer to each well and put the plate on a shaker for 10 min.
Place 40 uL of samples and analyze in appropriate wells. And test the cAMP concentration in each sample by following the manufacture's instruction.
Detect the fluorescence signal at Ex: 490 nm and Em: 530 nm. Transfer the FI signal to cAMP concentration by the cAMP standard curve. The Dose-response curve and EC50 were obtained by logistic fitting of Origin 8.

hGLP-1R = target: T2, hGLP-1R (Homo sapiens, UniProt P43220); experiment: hGLP-1R-mediated cAMP induction assay in CHO cell line; format: cell-based; conditions: for pEC50 / GLP-1 Receptor Relative Potency: Table 3; for pEC50: CHO hGLP1R cells; for GLP-1 Receptor Relative Potency: against native GLP-1;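 for all read-outs here: CHO cells expressing human GLP-1R, treated 30 min at 37 °C, intracellular cAMP measured by competitive fluorescent immunoassay and converted via a cAMP standard curve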
T2 construct: expressed in transfected cells; host or cells: CHO
T2 sequence (P43220 24-463): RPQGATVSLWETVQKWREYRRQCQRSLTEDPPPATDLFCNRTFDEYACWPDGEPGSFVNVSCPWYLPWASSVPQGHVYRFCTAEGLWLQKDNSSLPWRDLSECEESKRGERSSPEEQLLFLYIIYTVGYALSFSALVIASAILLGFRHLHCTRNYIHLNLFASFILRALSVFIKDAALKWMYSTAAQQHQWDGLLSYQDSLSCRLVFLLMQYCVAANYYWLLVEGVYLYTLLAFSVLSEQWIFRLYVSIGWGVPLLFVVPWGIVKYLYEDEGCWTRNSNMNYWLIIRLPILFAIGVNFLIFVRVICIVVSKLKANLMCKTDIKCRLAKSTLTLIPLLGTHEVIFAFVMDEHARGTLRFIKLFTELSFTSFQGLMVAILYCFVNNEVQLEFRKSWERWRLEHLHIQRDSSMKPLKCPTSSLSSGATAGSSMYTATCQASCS

Molecule | pEC50 (hGIPR) | GIP Receptor Relative Potency (hGIPR) | pEC50 (hGLP-1R) | GLP-1 Receptor Relative Potency (hGLP-1R) | GIPR activation (GIP activity) against native GIP (hGIPR; CHO/hGIPR cell assay) [%] | GLP-1R activation (GLP-1 activity) against native GLP-1 (hGLP-1R)
CCCCCCCCCCCCCCCC(=O)N[C@@H](CCC(=O)N[C@@H](CCC(=O)NCCCC[C@H](NC(=O)[C@H](CO)NC(=O)[C@@H]1CCCN1C(=O)[C@@H]1CCCN1C(=O)[C@@H]1CCCN1C(=O)[C@H](C)NC(=O)CNC(=O)[C@H](CO)NC(=O)[C@H](CO)NC(=O)[C@@H]1CCCN1C(=O)CNC(=O)CNC(=O)[C@H](CCCCN)NC(=O)[C@@H](NC(=O)[C@H](CC(C)C)NC(=O)[C@H](Cc1c[nH]c2ccccc12)NC(=O)[C@H](C)NC(=O)[C@@H](NC(=O)[C@H](Cc1ccccc1)NC(=O)[C@H](CCC(=O)O)NC(=O)[C@H](CCCNC(=N)N)NC(=O)[C@@H](NC(=O)[C@H](C)NC(=O)[C@H](CCC(=O)O)NC(=O)[C@H](CCCCN)NC(=O)[C@H](CCC(=O)O)NC(=O)[C@H](CCSC)NC(=O)[C@H](Cc1ccc(O)cc1)NC(=O)[C@@H](NC(=O)[C@H](CO)NC(=O)[C@H](Cc1ccc(O)cc1)NC(=O)[C@H](CC(=O)O)NC(=O)[C@H](CO)NC(=O)[C@@H](NC(=O)[C@H](Cc1ccccc1)NC(=O)[C@@H](NC(=O)CNC(=O)[C@H](CCC(=O)O)NC(=O)C(C)(C)NC(=O)[C@@H](N)Cc1ccc(O)cc1)[C@@H](C)O)[C@@H](C)O)[C@@H](C)CC)C(C)C)[C@@H](C)CC)C(C)C)C(N)=O)C(=O)O)C(=O)O [Compound 091] | 10.39 | 287.8 | 9.94 | 921.5 |  | 
Y[Aib]EGTFTSDYSIYMEKEAVREFIAWLVKGGPSSGAPPPSKKKKKK-NH2 [Compound 071] | 9.11 | 22.1 | 8.42 | 25.1 |  | 
CC[C@H](C)[C@H](NC(=O)[C@H](Cc1ccccc1)NC(=O)[C@H](CCC(=O)O)NC(=O)[C@H](CCCNC(=N)N)NC(=O)[C@@H](NC(=O)[C@H](C)NC(=O)[C@H](CCC(=O)O)NC(=O)[C@@H]1CCCCNC(=O)CC[C@H](NC(=O)[C@H](CO)NC(=O)[C@H](Cc2ccc(O)cc2)NC(=O)[C@H](CC(=O)O)NC(=O)[C@H](CO)NC(=O)[C@@H](NC(=O)[C@H](Cc2ccccc2)NC(=O)[C@@H](NC(=O)CNC(=O)[C@H](CCC(=O)O)NC(=O)C(C)(C)NC(=O)[C@@H](N)Cc2ccc(O)cc2)[C@@H](C)O)[C@@H](C)O)C(=O)N[C@@H](Cc2ccc(O)cc2)C(=O)N[C@@H](CCSC)C(=O)N[C@@H](CCC(=O)O)C(=O)N1)C(C)C)C(=O)N[C@@H](C)C(=O)N[C@@H](Cc1c[nH]c2ccccc12)C(=O)N[C@@H](CC(C)C)C(=O)N[C@H](C(=O)N[C@@H](CCCCN)C(=O)NCC(=O)NCC(=O)N1CCC[C@H]1C(=O)N[C@@H](CO)C(=O)N[C@@H](CO)C(=O)NCC(=O)N[C@@H](C)C(=O)N1CCC[C@H]1C(=O)N1CCC[C@H]1C(=O)N1CCC[C@H]1C(=O)N[C@@H](CO)C(N)=O)C(C)C [Compound 081] (H-Y[Aib]EGTFTSDYSEYMEKEAVREFIAWLVKGGPSSGAPPPS-NH2; lactam 12-16) | 10.36 | 250 | 9.11 | 124.3 |  | 
CCCCCCCCCCCCCCCC(=O)NCCCC[C@H](NC(=O)[C@H](CO)NC(=O)[C@@H]1CCCN1C(=O)[C@@H]1CCCN1C(=O)[C@@H]1CCCN1C(=O)[C@H](C)NC(=O)CNC(=O)[C@H](CO)NC(=O)[C@H](CO)NC(=O)[C@@H]1CCCN1C(=O)CNC(=O)CNC(=O)[C@H](CCCCN)NC(=O)[C@@H](NC(=O)[C@H](CC(C)C)NC(=O)[C@H](Cc1c[nH]c2ccccc12)NC(=O)[C@H](C)NC(=O)[C@@H](NC(=O)[C@H](Cc1ccccc1)NC(=O)[C@H](CCC(=O)O)NC(=O)[C@H](CCCNC(=N)N)NC(=O)[C@@H](NC(=O)[C@H](C)NC(=O)[C@H](CCC(=O)O)NC(=O)[C@H](CCCCN)NC(=O)[C@H](CCC(=O)O)NC(=O)[C@H](CCSC)NC(=O)[C@H](Cc1ccc(O)cc1)NC(=O)[C@@H](NC(=O)[C@H](CO)NC(=O)[C@H](Cc1ccc(O)cc1)NC(=O)[C@H](CC(=O)O)NC(=O)[C@H](CO)NC(=O)[C@@H](NC(=O)[C@H](Cc1ccccc1)NC(=O)[C@@H](NC(=O)CNC(=O)[C@H](CCC(N)=O)NC(=O)C(C)(C)NC(=O)[C@@H](N)Cc1ccc(O)cc1)[C@@H](C)O)[C@@H](C)O)[C@@H](C)CC)C(C)C)[C@@H](C)CC)C(C)C)C(N)=O [Compound 120] (H-Y[Aib]QGTFTSDYSIYMEKEAVREFIAWLVKGGPSSGAPPPSK(Palmitoyl)-NH2) | 10.41 | 294.9 | 9.60 | 586.6 |  | 
H-Y[Aib]EGTFTSDYSIYMEKEAVREFIAWLVKGGPSSGAPPPSKKKKKK(Biotin)-NH2 [Compound 080] | 10.00 | 67 | 8.95 | 98.5 |  | 
Tyr-Aib-Glu-Gly-Thr-Phe-Thr-Ser-Asp-Tyr-Ser-Ile-Tyr-Nle-Glu-Lys-Ile-His-Gln-Gln-Asp-Phe-Val-Asn-Trp-Leu-Val-Arg-Gln(NH2) (Y[Aib]EGTFTSDYSIY[Nle]EKIHQQDFVNWLVRQ-NH2) [Analog 021] |  |  |  |  | 21 | around 5%
CC[C@H](C)[C@H](NC(=O)[C@H](Cc1ccccc1)NC(=O)[C@H](CCC(=O)O)NC(=O)[C@H](CCCNC(=N)N)NC(=O)[C@@H](NC(=O)[C@H](C)NC(=O)[C@H](CCC(=O)O)NC(=O)[C@H](CCCCN)NC(=O)[C@H](CCC(=O)O)NC(=O)[C@H](CCSC)NC(=O)[C@H](Cc1ccc(O)cc1)NC(=O)[C@@H](NC(=O)[C@H](CO)NC(=O)[C@H](Cc1ccc(O)cc1)NC(=O)[C@H](CC(=O)O)NC(=O)[C@H](CO)NC(=O)[C@@H](NC(=O)[C@H](Cc1ccccc1)NC(=O)[C@@H](NC(=O)CNC(=O)[C@H](CCC(=O)O)NC(=O)C(C)(C)NC(=O)[C@@H](N)Cc1ccc(O)cc1)[C@@H](C)O)[C@@H](C)O)[C@@H](C)CC)C(C)C)C(=O)N[C@@H](C)C(=O)N[C@@H](Cc1c[nH]c2ccccc12)C(=O)N[C@@H](CC(C)C)C(=O)N[C@H](C(=O)N[C@@H](CCCCN)C(=O)NCC(=O)NCC(=O)N1CCC[C@H]1C(=O)N[C@@H](CO)C(=O)N[C@@H](CO)C(=O)NCC(=O)N[C@@H](C)C(=O)N1CCC[C@H]1C(=O)N1CCC[C@H]1C(=O)N1CCC[C@H]1C(=O)N[C@@H](CO)C(=O)N[C@@H](CCCCNC(=O)CCCCCCCCCCCCCCC(=O)O)C(N)=O)C(C)C [Compound 106] | 10.01 | 67.0 | 9.04 | 157.8 |  | 
CC[C@H](C)[C@H](NC(=O)[C@H](Cc1ccccc1)NC(=O)[C@H](CCC(=O)O)NC(=O)[C@H](CCCNC(=N)N)NC(=O)[C@@H](NC(=O)[C@H](C)NC(=O)[C@H](CCC(=O)O)NC(=O)[C@H](CCCCN)NC(=O)[C@H](CCC(=O)O)NC(=O)[C@H](CCSC)NC(=O)[C@H](Cc1ccc(O)cc1)NC(=O)[C@@H](NC(=O)[C@H](CO)NC(=O)[C@H](Cc1ccc(O)cc1)NC(=O)[C@H](CC(=O)O)NC(=O)[C@H](CO)NC(=O)[C@@H](NC(=O)[C@H](Cc1ccccc1)NC(=O)[C@@H](NC(=O)CNC(=O)[C@H](CCC(=O)O)NC(=O)C(C)(C)NC(=O)[C@@H](N)Cc1ccc(O)cc1)[C@@H](C)O)[C@@H](C)O)[C@@H](C)CC)C(C)C)C(=O)N[C@@H](C)C(=O)N[C@@H](Cc1c[nH]c2ccccc12)C(=O)N[C@@H](CC(C)C)C(=O)N[C@H](C(=O)N[C@@H](CCCCN)C(=O)NCC(=O)N[C@@H](CCCCN)C(=O)N[C@@H](CCCCN)C(=O)N[C@@H](CCCCN)C(=O)N[C@@H](CCCCN)C(=O)N[C@@H](CCCCN)C(N)=O)C(C)C [Compound 060] (H-Y[Aib]EGTFTSDYSIYMEKEAVREFIAWLVKGKKKKK-NH2; N-terminus assumed) |  | 8.4 |  | 36.8 |  | 
CCCCCCCCCCCCCCCC(=O)NCCCC[C@H](NC(=O)[C@@H](NC(=O)[C@H](C)NC(=O)[C@H](CCC(=O)O)NC(=O)[C@H](CCCCN)NC(=O)[C@H](CCC(=O)O)NC(=O)[C@H](CCSC)NC(=O)[C@H](Cc1ccc(O)cc1)NC(=O)[C@@H](NC(=O)[C@H](CO)NC(=O)[C@H](Cc1ccc(O)cc1)NC(=O)[C@H](CC(=O)O)NC(=O)[C@H](CO)NC(=O)[C@@H](NC(=O)[C@H](Cc1ccccc1)NC(=O)[C@@H](NC(=O)CNC(=O)[C@H](CCC(=O)O)NC(=O)C(C)(C)NC(=O)[C@@H](N)Cc1ccc(O)cc1)[C@@H](C)O)[C@@H](C)O)[C@@H](C)CC)C(C)C)C(=O)N[C@@H](CCC(=O)O)C(=O)N[C@@H](Cc1ccccc1)C(=O)N[C@H](C(=O)N[C@@H](C)C(=O)N[C@@H](Cc1c[nH]c2ccccc12)C(=O)N[C@@H](CC(C)C)C(=O)N[C@H](C(=O)N[C@@H](CCCCN)C(=O)NCC(N)=O)C(C)C)[C@@H](C)CC [Compound 067] (H-Y[Aib]EGTFTSDYSIYMEKEAVK(Palmitoyl)EFIAWLVKG-NH2) |  | 4.6 |  | 13.9 |  | 
